Results as given in patent US8361734B2, “Xanthurenic acid derivative pharmaceutical compositions and methods related thereto” (Naturon, Inc., priority 2004, dated 2013).

Legend:
Type in all cases: in vivo
[1] = test system: uremic Sprague Dawley rat; experiment: Natriuretic response (Na+ and K+ urine excretion) after i.v. administration in a uremic Sprague Dawley rat
Text: Female Sprague-Dawley rat, weighing 225 g, was made uremic by tying off one kidney and 30-50% of the second kidney. Two weeks later the rat was ready to test for natriuretic activity. The rat was anesthetized lightly with ether and a tail vein catheter was placed using PE10 tubing. Additionally, a urethra catheter was inserted using KY jelly and 2% lidocaine as a lubricant. The rat was restrained in a modified Plexiglas tube so that urine could be collected in 1.5-mL microcentrifuge tubes. Saline infusion started at time zero at 0.02 mL/min for the length of the assay. The same i.v. catheter was used to inject isolated xanthurenic acid 8-O-β-glucoside at the time indicated in a 1-mL volume in saline over the course of 10 minutes. […] The tubes were centrifuged at 14,000 rpm to separate any RBC's from the urine. Na^+ and K^+ concentrations in the urine were measured with respective ion selective electrodes. The Na^+ and K^+ excretion rates were calculated by: (vol of urine/time of collection period)×(ion urine concentration).
A female Sprague-Dawley rat, weighing 225 g, was made uremic by tying off one kidney and 30-50% of the second kidney. Two weeks later the rat was ready to test for natriuretic activity. The rat was anesthetized lightly with ether and a tail vein catheter was placed using PE10 tubing. Additionally, a urethra catheter was inserted using KY jelly and 2% lidocaine as a lubricant. The rat was restrained in a modified Plexiglas tube so that urine could be collected in 1.5-mL microcentrifuge tubes. Saline infusion started at time zero at 0.02 mL/min for the length of the assay. The same i.v. catheter was used to inject the test compound. Isolated xanthurenic acid 8-O-sulfate, 2 μg, was injected at the time indicated in a 1 mL volume in saline over the course of 10 minutes. Then saline infusion was returned to 0.02 mL/min for the duration of the assay. The tubes were centrifuged at 14,000 rpm to separate any RBC's from the urine. Na^+ and K^+ concentrations in the urine were measured with respective ion selective electrodes. The Na^+ and K^+ excretion rates were calculated by: (vol of urine/time of collection period)×(ion urine concentration).

[2] = test system: normal Sprague Dawley rat; experiment: Natriuretic response (Na+ and K+ urine excretion) after oral administration in a normal Sprague Dawley rat
Experimental: A female Sprague Dawley rat (250 g) was anesthetized lightly with ether and a urethra catheter was inserted using KY jelly and 2% lidocaine as a lubricant. The rat was restrained in a modified Plexiglas tube so that urine could be collected in 1.5-mL microcentrifuge tubes. No saline infusion was administered. Synthetic xanthurenic acid 8-O-β-D-glucoside was injected with a feeding needle at the time indicated in a 1-mL volume of water over the course of 1 minute. […] The tubes were centrifuged at 14,000 rpm to separate any RBC's from the urine. Na^+ and K^+ concentrations in the urine were measured with respective ion selective electrodes. The Na^+ and K^+ excretion rates were calculated by: (vol of urine/time of collection period)×(ion urine concentration).
A female Sprague Dawley rat (250 g) was anesthetized lightly with ether and a urethra catheter was inserted using KY jelly and 2% lidocaine as a lubricant. The rat was restrained in a modified Plexiglas tube so that urine could be collected in 1.5-mL microcentrifuge tubes. No saline infusion was administered. Xanthurenic acid 8-O-sulfate was injected with a feeding needle at the time indicated in a 1-mL volume of water over the course of 1 minute. The tubes were centrifuged at 14,000 rpm to separate any RBC's from the urine. Na^+ and K^+ concentrations in the urine were measured with respective ion selective electrodes. The Na^+ and K^+ excretion rates were calculated by: (vol of urine/time of collection period)×(ion urine concentration).

[3] = test system: normal Sprague Dawley rat; experiment: Natriuretic response (Na+ and K+ urine excretion) after i.v. administration in a normal Sprague Dawley rat; conditions: for natriuretic response (Na+ excretion): 2 μg i.v., FIGS. 1-4
Experimental: A female Sprague Dawley rat (250 g) was anesthetized lightly with ether and a tail vein catheter was placed using PE10 tubing. Additionally, a urethra catheter was inserted using KY jelly and 2% lidocaine as a lubricant. The rat was restrained in a modified Plexiglas tube so that urine could be collected in 1.5-mL microcentrifuge tubes. Saline infusion started at time zero at 0.02 mL/min for the duration of the assay. The same i.v. catheter was used to inject the test compound. Synthetic xanthurenic acid 8-O-β-D-glucoside, 2 μg, was injected at the time indicated in a 1-mL volume in saline over the course of 10 minutes. The tubes were centrifuged at 14,000 rpm to separate any RBC's from the urine. Na^+ and K^+ concentrations in the urine were measured with respective ion selective electrodes. The Na^+ and K^+ excretion rates were calculated by: (vol of urine/time of collection period)×(ion urine concentration). […] Given an extracellular volume of 50 mL in a 250-g rat, the concentration of the test compound was […], a possible minimum dose.
A female Sprague Dawley rat (250 g) was anesthetized lightly with ether and a tail vein catheter was placed using PE10 tubing. Additionally, a urethra catheter was inserted using KY jelly and 2% lidocaine as a lubricant. The rat was restrained in a modified Plexiglas tube so that urine could be collected in 1.5-mL microcentrifuge tubes. Saline infusion started at time zero at 0.02 mL/min for the length of the assay. The same i.v. catheter was used to inject the test compound. Synthetic xanthurenic acid 8-O-β-D-glucoside, 10 μg i.v. was injected at the time indicated in a 1-mL volume in saline over the course of 10 minutes. At the indicated time the saline infusion was increased tenfold to 0.2 mL/min for ten minutes and returned to 0.02 mL/min for the duration of the assay. The tubes were centrifuged at 14,000 rpm to separate any RBC's from the urine. Na^+ and K^+ concentrations in the urine were measured with respective ion selective electrodes. The Na^+ and K^+ excretion rates were calculated by: (vol of urine/time of collection period)×(ion urine concentration).

[4] = i.v. administered sulfate, FIG. 19

With `O=C(O)c1cc(=O)c2cccc(OS(=O)(=O)O)c2[nH]1` [xanthurenic acid 8-O-sulfate, Xanthurenic Acid 8-O-sulfate] the “Na+ urine concentration after the increase” value [1, 4] was 160 mM, the “Na+ urine concentration before the increase” value [1, 4] was 60 mM and the “time until natriuresis approached control levels” value ([1]; isolated sulfate 2 μg i.v., uremic rat) was no more than 70 min. For the same compound, the natriuretic response ([1]; isolated sulfate 2 μg i.v., uremic rat, FIGS. 17-20) was “caused sustained natriuretic response”, the “time to peak of natriuresis” value ([1]; isolated sulfate 2 μg i.v., uremic rat, FIGS. 17 and 18) was no more than 30 min and the “K+ excretion” value ([1]; isolated sulfate 2 μg i.v., uremic rat, FIGS. 18 and 19) was “did not increase”. For the same compound, the “Na+ urine concentration” value ([2]; 20 ug oral, synthetic sulfate, normal rat) was “below 50 mM” and the natriuretic response ([2]; 20 ug oral, synthetic sulfate, normal rat, FIGS. 21-24) was “not orally active”.

In the case of `O=C(O)c1cc(=O)c2cccc(O[C@@H]3OC(CO)[C@@H](O)[C@H](O)C3O)c2[nH]1` (stereo partly drawn) [xanthurenic acid 8-O-β-D-glucoside, Xanthurenic acid 8-O-β-D-glucoside], the “time of peak Na+ excretion” value ([1]; isolated glucoside 3 μg i.v., uremic rat, FIG. 13) is reported as 70 min, the natriuretic response ([1]; isolated glucoside 3 μg i.v., uremic rat, FIGS. 13-16) is reported as “caused a sustained natriuretic response” and the “K+ excretion” value ([1]; isolated glucoside 3 μg i.v., uremic rat, FIGS. 14 and 15) is reported as “did not increase”. For the same compound, the “K+ excretion after furosemide” value ([1]; pretreatment with isolated glucoside 3 μg i.v. followed by furosemide 20 ug i.v., uremic rat, FIGS. 14 and 15) was “prevented the typical increase in K^+ excretion”, the “natriuretic response (Na+ excretion)” value ([3]; synthetic compound, normal rat) was “caused a sustained natriuretic response” and the “Na+ excretion rate before increase of saline infusion” value ([3]; 10 μg i.v., saline 0.02 mL/min, FIG. 6) was 2 uEq/min. For the same compound, the “Na+ excretion rate after saline infusion increased tenfold” value ([3]; 10 μg i.v., saline 0.2 mL/min for 10 minutes, FIG. 6) was 10 uEq/min, the “time after administration at which urine production decreased” value ([3]; 10 μg i.v., saline infusion 0.02 mL/min) was 140 min and the “K+ excretion” value ([3]; 10 μg i.v., synthetic compound, normal rat) was “did not increase”. The natriuretic response ([3]; 10 μg i.v., synthetic compound, normal rat, FIGS. 5-8) was “caused a sustained natriuretic response”, the natriuresis ([3]; synthetic glucoside given subsequently to xanthurenic acid 2 ug i.v., normal rat) was “did cause natriuresis” and the natriuretic response ([2]; 10 μg oral, synthetic compound, normal rat, FIGS. 9-12) was “orally active”. For the same compound, the “Na+ urine concentration reached” value ([2]; glucoside oral, normal rat, FIG. 11) was 160 mM, the “K+ excretion” value ([2]; pretreatment with glucoside 10 μg oral followed by furosemide 100 μg oral, FIG. 10) was “did not increase K^+ excretion” and the “furosemide-induced K+ excretion” value ([2]; pretreatment with glucoside 10 μg oral, furosemide 100 μg oral) was “inhibited”.

With `O=C(O)c1cc(O)c2cccc(O)c2n1` [xanthurenic acid] the “natriuretic response (Na+ excretion)” value ([3]; synthetic compound, normal rat) was “did not increase Na^+ excretion”.
